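96-well plates; 48 h exposure; 5 concentrations. Endpoints by linear interpolation between flanking doses. Not reached: highest tested concentration assigned. GI50 = concentration required for 50% inhibition of growth.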 Activity calls are given as the source filed them. Cut-off read from the data, not from the text of the source: active = GI50 up to about 1.1 µM and inactive = higher.
Tests used:
Assay in all cases: growth of human tumour cells (NCI), 48 h
HOP-92 = tested on: HOP-92
Malme-3M = tested on: Malme-3M
HOP-62 = tested on: HOP-62
OVCAR-8 = tested on: OVCAR-8
UACC-62 = tested on: UACC-62
COLO 205 = tested on: COLO 205
TK-10 = tested on: TK-10
NCI-H460 = tested on: NCI-H460
SF-539 = tested on: SF-539
SK-MEL-5 = tested on: SK-MEL-5
UO-31 = tested on: UO-31
HL-60 = tested on: HL-60
RXF 631 = tested on: RXF 631
HCC 2998 = tested on: HCC 2998
SNB-78 = tested on: SNB-78
SW-620 = tested on: SW-620
786-0 = tested on: 786-0
SNB-19 = tested on: SNB-19
OVCAR-4 = tested on: OVCAR-4
DLD-1 = tested on: DLD-1
A549 = tested on: A549
SK-MEL-28 = tested on: SK-MEL-28
LXFL 529 = tested on: LXFL 529
HOP-18 = tested on: HOP-18
NCI-H23 = tested on: NCI-H23
NCI-H522 = tested on: NCI-H522
SK-MEL-2 = tested on: SK-MEL-2
M19-MEL = tested on: M19-MEL
RXF 393 = tested on: RXF 393
EKVX = tested on: EKVX
SF-295 = tested on: SF-295
K562 = tested on: K562
HT-29 = tested on: HT-29
UACC-257 = tested on: UACC-257
U-251 = tested on: U-251
CCRF-CEM = tested on: CCRF-CEM
IGROV-1 = tested on: IGROV-1
SF-268 = tested on: SF-268
SN12C = tested on: SN12C
ACHN = tested on: ACHN
HCT-15 = tested on: HCT-15
KM12 = tested on: KM12
DMS-114 = tested on: DMS-114
SR = tested on: SR
OVCAR-3 = tested on: OVCAR-3
HCT-116 = tested on: HCT-116
RPMI-8226 = tested on: RPMI-8226
MOLT-4 = tested on: MOLT-4
OVCAR-5 = tested on: OVCAR-5
M14 = tested on: M14
KM-20L2 = tested on: KM-20L2
A498 = tested on: A498
DMS-273 = tested on: DMS-273
LOX IMVI = tested on: LOX IMVI
SK-OV-3 = tested on: SK-OV-3
NCI-H226 = tested on: NCI-H226
CAKI-1 = tested on: CAKI-1
SNB-75 = tested on: SNB-75
XF498 = tested on: XF498

SMILES: COCCCNC(=O)CC(=O)NCCCOC
- GI50 (HOP-92): > 100 µM (inactive)
- GI50 (Malme-3M): > 100 µM (inactive)
- GI50 (HOP-62): > 100 µM (inactive)
- GI50 (OVCAR-8): > 100 µM (inactive)
- GI50 (UACC-62): > 100 µM (inactive)
- GI50 (COLO 205): > 100 µM (inactive)
- GI50 (TK-10): > 100 µM (inactive)
- GI50 (NCI-H460): > 100 µM (inactive)
- GI50 (SF-539): > 100 µM (inactive)
- GI50 (SK-MEL-5): > 100 µM (inactive)
- GI50 (UO-31): > 100 µM (inactive)
- GI50 (HL-60): > 100 µM (inactive)
- GI50 (RXF 631): > 100 µM (inactive)
- GI50 (HCC 2998): > 100 µM (inactive)
- GI50 (SNB-78): > 100 µM (inactive)
- GI50 (SW-620): > 100 µM (inactive)
- GI50 (786-0): > 100 µM (inactive)
- GI50 (SNB-19): > 100 µM (inactive)
- GI50 (OVCAR-4): > 100 µM (inactive)
- GI50 (DLD-1): > 100 µM (inactive)
- GI50 (A549): > 100 µM (inactive)
- GI50 (SK-MEL-28): > 100 µM (inactive)
- GI50 (LXFL 529): > 100 µM (inactive)
- GI50 (HOP-18): > 100 µM (inactive)
- GI50 (NCI-H23): > 100 µM (inactive)
- GI50 (NCI-H522): > 100 µM (inactive)
- GI50 (SK-MEL-2): > 100 µM (inactive)
- GI50 (M19-MEL): > 100 µM (inactive)
- GI50 (RXF 393): > 100 µM (inactive)
- GI50 (EKVX): > 100 µM (inactive)
- GI50 (SF-295): > 100 µM (inactive)
- GI50 (K562): > 100 µM (inactive)
- GI50 (HT-29): > 100 µM (inactive)
- GI50 (UACC-257): > 100 µM (inactive)
- GI50 (U-251): > 100 µM (inactive)
- GI50 (CCRF-CEM): > 100 µM (inactive)
- GI50 (IGROV-1): > 100 µM (inactive)
- GI50 (SF-268): > 100 µM (inactive)
- GI50 (SN12C): > 100 µM (inactive)
- GI50 (ACHN): > 100 µM (inactive)
- GI50 (HCT-15): > 100 µM
- GI50 (KM12): > 100 µM (inactive)
- GI50 (DMS-114): > 100 µM (inactive)
- GI50 (SR): > 100 µM (inactive)
- GI50 (OVCAR-3): > 100 µM (inactive)
- GI50 (HCT-116): > 100 µM (inactive)
- GI50 (RPMI-8226): > 100 µM (inactive)
- GI50 (MOLT-4): > 100 µM (inactive)
- GI50 (OVCAR-5): > 100 µM (inactive)
- GI50 (M14): > 100 µM (inactive)
- GI50 (KM-20L2): > 100 µM (inactive)
- GI50 (A498): > 100 µM (inactive)

SMILES: C/C(CC(=O)Nc1ccc([N+](=O)[O-])cc1)=N\NC(N)=O
- GI50 (HOP-92): > 100 µM (inactive)
- GI50 (DMS-273): > 66.5 µM (inactive)
- GI50 (Malme-3M): > 100 µM (inactive)
- GI50 (LOX IMVI): > 64.7 µM (inactive)
- GI50 (HOP-62): > 100 µM (inactive)
- GI50 (OVCAR-8): > 44.4 µM (inactive)
- GI50 (UACC-62): > 71.3 µM (inactive)
- GI50 (COLO 205): > 55.6 µM (inactive)
- GI50 (TK-10): > 100 µM (inactive)
- GI50 (NCI-H460): > 100 µM (inactive)
- GI50 (SF-539): > 100 µM (inactive)
- GI50 (SK-MEL-5): > 68.7 µM (inactive)
- GI50 (UO-31): > 100 µM (inactive)
- GI50 (HL-60): > 100 µM (inactive)
- GI50 (SK-OV-3): > 100 µM (inactive)
- GI50 (NCI-H226): > 100 µM (inactive)
- GI50 (HCC 2998): > 100 µM (inactive)
- GI50 (SNB-78): > 100 µM (inactive)
- GI50 (SW-620): > 100 µM (inactive)
- GI50 (CAKI-1): > 100 µM (inactive)
- GI50 (786-0): > 100 µM (inactive)
- GI50 (SNB-19): > 100 µM (inactive)
- GI50 (OVCAR-4): > 100 µM (inactive)
- GI50 (DLD-1): > 77.8 µM (inactive)
- GI50 (SNB-75): > 100 µM (inactive)
- GI50 (A549): > 100 µM (inactive)
- GI50 (SK-MEL-28): > 100 µM (inactive)
- GI50 (LXFL 529): > 80.2 µM (inactive)
- GI50 (HOP-18): > 100 µM (inactive)
- GI50 (NCI-H23): > 100 µM (inactive)
- GI50 (XF498): > 100 µM (inactive)
- GI50 (NCI-H522): > 81.7 µM (inactive)
- GI50 (SK-MEL-2): > 100 µM (inactive)
- GI50 (M19-MEL): > 100 µM (inactive)
- GI50 (RXF 393): > 100 µM (inactive)
- GI50 (EKVX): > 100 µM (inactive)
- GI50 (SF-295): > 100 µM (inactive)
- GI50 (K562): > 70.8 µM (inactive)
- GI50 (HT-29): > 100 µM (inactive)
- GI50 (UACC-257): > 100 µM (inactive)
- GI50 (U-251): > 100 µM (inactive)
- GI50 (CCRF-CEM): > 44.6 µM (inactive)
- GI50 (IGROV-1): > 100 µM (inactive)
- GI50 (SF-268): 98.2 µM (inactive)
- GI50 (SN12C): > 100 µM (inactive)
- GI50 (ACHN): > 100 µM (inactive)
- GI50 (HCT-15): 27 µM
- GI50 (KM12): > 100 µM (inactive)
- GI50 (DMS-114): > 45.8 µM (inactive)
- GI50 (SR): 24.4 µM (inactive)
- GI50 (OVCAR-3): > 100 µM (inactive)
- GI50 (HCT-116): > 57.8 µM (inactive)
- GI50 (RPMI-8226): > 46.1 µM (inactive)
- GI50 (MOLT-4): > 100 µM (inactive)
- GI50 (OVCAR-5): > 100 µM (inactive)
- GI50 (M14): > 76.6 µM (inactive)
- GI50 (KM-20L2): > 64.9 µM (inactive)
- GI50 (A498): > 100 µM (inactive)

SMILES: CS(=O)(=O)Oc1cccc(/C=N/N=C(\N)NO)c1
- GI50 (HOP-92): 22.4 µM (inactive)
- GI50 (DMS-273): 19.9 µM (inactive)
- GI50 (Malme-3M): 23.1 µM (inactive)
- GI50 (HOP-62): 27.5 µM (inactive)
- GI50 (OVCAR-8): 33.2 µM (inactive)
- GI50 (UACC-62): 4.84 µM (inactive)
- GI50 (COLO 205): 26.7 µM (inactive)
- GI50 (TK-10): 14.7 µM (inactive)
- GI50 (NCI-H460): 24.8 µM (inactive)
- GI50 (SF-539): 28.6 µM (inactive)
- GI50 (UO-31): 22.8 µM (inactive)
- GI50 (HL-60): 19 µM (inactive)
- GI50 (SK-OV-3): 27 µM (inactive)
- GI50 (NCI-H226): 23.3 µM (inactive)
- GI50 (HCC 2998): 20.6 µM (inactive)
- GI50 (SNB-78): > 100 µM (inactive)
- GI50 (SW-620): 19.9 µM (inactive)
- GI50 (CAKI-1): 20.9 µM (inactive)
- GI50 (786-0): 19.3 µM (inactive)
- GI50 (SNB-19): 64.9 µM (inactive)
- GI50 (OVCAR-4): 18 µM (inactive)
- GI50 (DLD-1): 24.9 µM (inactive)
- GI50 (SNB-75): 2.96 µM (inactive)
- GI50 (A549): 21.8 µM (inactive)
- GI50 (SK-MEL-28): > 100 µM (inactive)
- GI50 (LXFL 529): 19.2 µM (inactive)
- GI50 (HOP-18): 69.8 µM (inactive)
- GI50 (NCI-H23): 27.2 µM (inactive)
- GI50 (XF498): 10.7 µM (inactive)
- GI50 (NCI-H522): 26.2 µM (inactive)
- GI50 (SK-MEL-2): 34.8 µM (inactive)
- GI50 (M19-MEL): 42.5 µM (inactive)
- GI50 (RXF 393): 37.4 µM (inactive)
- GI50 (EKVX): 34 µM (inactive)
- GI50 (SF-295): 49.3 µM (inactive)
- GI50 (K562): 19.1 µM (inactive)
- GI50 (HT-29): 24.8 µM (inactive)
- GI50 (UACC-257): 38.8 µM (inactive)
- GI50 (U-251): 27.7 µM (inactive)
- GI50 (CCRF-CEM): 23.9 µM (inactive)
- GI50 (IGROV-1): 35.2 µM (inactive)
- GI50 (SF-268): 24.2 µM (inactive)
- GI50 (SN12C): 29.2 µM (inactive)
- GI50 (ACHN): 22.2 µM (inactive)
- GI50 (HCT-15): 35.1 µM
- GI50 (KM12): 25.1 µM (inactive)
- GI50 (DMS-114): 9.55 µM (inactive)
- GI50 (SR): 27.4 µM (inactive)
- GI50 (OVCAR-3): 35.2 µM (inactive)
- GI50 (HCT-116): 32.9 µM (inactive)
- GI50 (OVCAR-5): 36 µM (inactive)
- GI50 (M14): 27.1 µM (inactive)
- GI50 (A498): 73.1 µM (inactive)

— ChEMBL document CHEMBL1201862, “PubChem BioAssay data set” (2004)
